{
  "source": "ChEMBL document CHEMBL1136333",
  "about": "“A novel series of histone deacetylase inhibitors incorporating hetero aromatic ring systems as connection units” (Bioorg Med Chem Lett, 2003)",
  "key": {"HT-1080 [1]": {"tested_on": "HT-1080", "test": "Antiproliferative activity against human HT1080 fibrosarcoma cell line", "assay_type": "functional, cell-based"}, "[2]": {"target": "Histone deacetylase (HDAC1 and HDAC2) (Homo sapiens, UniProt Q13547+Q92769)", "test": "Inhibitory activity against histone deacetylase (HDAC1 and HDAC2) isolated from K562 erythroleukemia cells", "assay_type": "cell-based"}, "[3]": {"test": "Antiproliferative activity against human MDA-435 breast carcinoma cell line at a dose of 50 uM", "assay_type": "functional"}, "cells": {"test": "cells", "assay_type": "functional", "details": "Homo sapiens, MDA435"}, "HT-1080 [4]": {"tested_on": "HT-1080", "test": "Antiproliferative activity against human HT1080 fibrosarcoma cell line at a dose of 50 uM", "assay_type": "functional"}},
  "data": [
    {"smiles": "O=C(CCCCCCc1cnc(-c2ccc(Br)cc2)o1)NO", "values": [
      {"measurement": "IC50", "setting": "HT-1080 [1]", "result": 27, "unit": "µM"},
      {"measurement": "IC50", "setting": "[2]", "result": 0.0044, "unit": "µM"},
      {"measurement": "inhibition at 50 µM", "setting": "[3]", "result": 97, "unit": "%"}
    ]},
    {"smiles": "O=C(CCCCCCc1ncc(-c2ccc(Br)cc2)o1)NO", "values": [
      {"measurement": "IC50", "setting": "HT-1080 [1]", "result": 7.7, "unit": "µM"},
      {"measurement": "IC50", "setting": "[2]", "result": 0.0027, "unit": "µM"},
      {"measurement": "IC50", "setting": "cells", "result": 6.7, "unit": "µM"}
    ]},
    {"smiles": "O=C(CCCCCCc1nc(-c2ccc3ccccc3c2)cs1)NO", "values": [
      {"measurement": "IC50", "setting": "HT-1080 [1]", "result": 2.39, "unit": "µM"},
      {"measurement": "IC50", "setting": "[2]", "result": 0.0043, "unit": "µM"},
      {"measurement": "IC50", "setting": "cells", "result": 0.85, "unit": "µM"}
    ]},
    {"smiles": "COc1cccc(OC)c1-c1csc(CCCCCCC(=O)NO)n1", "values": [
      {"measurement": "IC50", "setting": "HT-1080 [1]", "result": 2, "unit": "µM"},
      {"measurement": "IC50", "setting": "[2]", "result": 0.0043, "unit": "µM"},
      {"measurement": "IC50", "setting": "cells", "result": 2.91, "unit": "µM"}
    ]},
    {"smiles": "O=C(CCCCCCOc1ccccc1)NO", "values": [
      {"measurement": "IC50", "setting": "[2]", "result": 0.33, "unit": "µM"}
    ]},
    {"smiles": "CNC(=O)C(=O)CCCCCCc1cnc(-c2ccccc2)s1", "values": [
      {"measurement": "IC50", "setting": "[2]", "result": 0.047, "unit": "µM"}
    ]},
    {"smiles": "CNC(=O)C(=O)CCCCCCc1cnc(-c2ccccc2)o1", "values": [
      {"measurement": "IC50", "setting": "[2]", "result": 0.021, "unit": "µM"}
    ]},
    {"smiles": "O=C(CCCCCCCc1ccccc1)NO", "values": [
      {"measurement": "IC50", "setting": "[2]", "result": 0.56, "unit": "µM"}
    ]},
    {"smiles": "O=C(CCCCCCc1nc(-c2ccc(-c3ccccc3)cc2)cs1)NO", "values": [
      {"measurement": "IC50", "setting": "HT-1080 [1]", "result": 1.32, "unit": "µM"},
      {"measurement": "IC50", "setting": "[2]", "result": 0.011, "unit": "µM"},
      {"measurement": "IC50", "setting": "cells", "result": 1.95, "unit": "µM"}
    ]},
    {"smiles": "O=C(CCCCCCc1nc(-c2ccc(C(F)(F)F)cc2)cs1)NO", "values": [
      {"measurement": "IC50", "setting": "HT-1080 [1]", "result": 2.39, "unit": "µM"},
      {"measurement": "IC50", "setting": "[2]", "result": 0.042, "unit": "µM"},
      {"measurement": "IC50", "setting": "cells", "result": 0.85, "unit": "µM"}
    ]},
    {"smiles": "O=C(CCCCCCc1nc(-c2ccc(Br)cc2)cs1)NO", "values": [
      {"measurement": "IC50", "setting": "HT-1080 [1]", "result": 5.68, "unit": "µM"},
      {"measurement": "IC50", "setting": "[2]", "result": 0.0085, "unit": "µM"},
      {"measurement": "IC50", "setting": "cells", "result": 8.11, "unit": "µM"}
    ]},
    {"smiles": "O=C(CCCCCCc1cnc(-c2ccccc2)o1)NO", "values": [
      {"measurement": "inhibition at 50 µM", "setting": "HT-1080 [4]", "result": 23, "unit": "%"},
      {"measurement": "IC50", "setting": "[2]", "result": 0.013, "unit": "µM"},
      {"measurement": "inhibition at 50 µM", "setting": "[3]", "result": 6.12, "unit": "%"}
    ]},
    {"smiles": "CNC(=O)C(=O)CCCCCCc1cnc(-c2ccc(Br)cc2)o1", "values": [
      {"measurement": "IC50", "setting": "[2]", "result": 0.03, "unit": "µM"}
    ]},
    {"smiles": "O=C(CCCCCCc1ncc(-c2ccccc2)o1)NO", "values": [
      {"measurement": "IC50", "setting": "HT-1080 [1]", "result": 8.41, "unit": "µM"},
      {"measurement": "IC50", "setting": "[2]", "result": 0.0098, "unit": "µM"},
      {"measurement": "IC50", "setting": "cells", "result": 2.2, "unit": "µM"}
    ]},
    {"smiles": "O=C(CCCCCCc1cnc(-c2ccc(-c3ccccc3)cc2)o1)NO", "values": [
      {"measurement": "IC50", "setting": "HT-1080 [1]", "result": 15.3, "unit": "µM"},
      {"measurement": "IC50", "setting": "[2]", "result": 0.012, "unit": "µM"},
      {"measurement": "IC50", "setting": "cells", "result": 98.7, "unit": "µM"}
    ]},
    {"smiles": "O=C(CCCCCCNC(=O)c1ccccc1)NO", "values": [
      {"measurement": "IC50", "setting": "[2]", "result": 1.01, "unit": "µM"}
    ]},
    {"smiles": "O=C(CCCCCCc1ccc(-c2ccccc2)cc1)NO", "values": [
      {"measurement": "IC50", "setting": "[2]", "result": 0.058, "unit": "µM"}
    ]},
    {"smiles": "COc1ccc(-c2csc(CCCCCCC(=O)NO)n2)cc1", "values": [
      {"measurement": "IC50", "setting": "HT-1080 [1]", "result": 3.63, "unit": "µM"},
      {"measurement": "IC50", "setting": "[2]", "result": 0.0025, "unit": "µM"},
      {"measurement": "IC50", "setting": "cells", "result": 2.97, "unit": "µM"}
    ]},
    {"smiles": "O=C(CCCCCCc1nc(-c2cccc(Br)c2)cs1)NO", "values": [
      {"measurement": "IC50", "setting": "HT-1080 [1]", "result": 10.1, "unit": "µM"},
      {"measurement": "IC50", "setting": "[2]", "result": 0.0058, "unit": "µM"},
      {"measurement": "inhibition at 50 µM", "setting": "[3]", "result": 98.6, "unit": "%"}
    ]},
    {"smiles": "COc1ccc(-c2cnc(CCCCCCC(=O)NO)o2)cc1", "values": [
      {"measurement": "IC50", "setting": "HT-1080 [1]", "result": 0.31, "unit": "µM"},
      {"measurement": "IC50", "setting": "[2]", "result": 0.0021, "unit": "µM"},
      {"measurement": "IC50", "setting": "cells", "result": 2.52, "unit": "µM"}
    ]},
    {"smiles": "O=C(CCCCCCc1nc(-c2ccc(OC(F)(F)F)cc2)cs1)NO", "values": [
      {"measurement": "inhibition at 50 µM", "setting": "HT-1080 [4]", "result": 100, "unit": "%"},
      {"measurement": "IC50", "setting": "[2]", "result": 0.074, "unit": "µM"},
      {"measurement": "IC50", "setting": "cells", "result": 2.04, "unit": "µM"}
    ]},
    {"smiles": "O=C(CCCCCCc1cnc(-c2ccc(OC(F)(F)F)cc2)o1)NO", "values": [
      {"measurement": "IC50", "setting": "HT-1080 [1]", "result": 5.14, "unit": "µM"},
      {"measurement": "IC50", "setting": "[2]", "result": 0.089, "unit": "µM"},
      {"measurement": "IC50", "setting": "cells", "result": 20.4, "unit": "µM"}
    ]},
    {"smiles": "CNC(=O)C(=O)CCCCCCc1ncc(-c2ccc(OC)cc2)o1", "values": [
      {"measurement": "IC50", "setting": "[2]", "result": 0.011, "unit": "µM"}
    ]},
    {"smiles": "O=C(CCCCCCc1cnc(-c2ccc(F)cc2)o1)NO", "values": [
      {"measurement": "inhibition at 50 µM", "setting": "HT-1080 [4]", "result": 76, "unit": "%"},
      {"measurement": "IC50", "setting": "[2]", "result": 0.023, "unit": "µM"},
      {"measurement": "IC50", "setting": "cells", "result": 7.94, "unit": "µM"}
    ]},
    {"smiles": "O=C(CCCCCCc1ncc(-c2ccc(-c3ccc(Cl)cc3)cc2)o1)NO", "values": [
      {"measurement": "IC50", "setting": "HT-1080 [1]", "result": 0.66, "unit": "µM"},
      {"measurement": "IC50", "setting": "[2]", "result": 0.0068, "unit": "µM"},
      {"measurement": "IC50", "setting": "cells", "result": 0.95, "unit": "µM"}
    ]},
    {"smiles": "O=C(CCCCCCc1nc(-c2ccccc2)cs1)NO", "values": [
      {"measurement": "IC50", "setting": "HT-1080 [1]", "result": 5.07, "unit": "µM"},
      {"measurement": "IC50", "setting": "[2]", "result": 0.019, "unit": "µM"},
      {"measurement": "inhibition at 50 µM", "setting": "[3]", "result": 99.7, "unit": "%"}
    ]}
  ]
}
